Data on five compounds can be found in US7368267B2, “Method for the oxidation of aromatic compounds” (BASF Aktiengesellschaft, priority 2001, dated 2008).

Where two headings read alike, the source gives them in different places.

Data set [1] can be described thus: Partition coefficients in DOP/M9 (glucose) biphasic system. The format is physicochemical.
In data set [2] the test system is E. coli. Description: Toxic / inhibitory effect of substrate, products and organic phase on biomass growth of the cells. The conditions noted are these: in the aqueous phase.
For data set [3], the system named is E. coli.
Data set [4] deals with E coli. The note with it: at a pH of 7; cited from earlier work.
Where [5] appears, read: concentration in organic phase (dioctyl phthalate) relative to aqueous phase (M9 medium, glucose), triplicate.

In data set [1] (setting [5]), `Cc1ccc(C=O)cc1C` [3,4-Dimethylbenzaldehyde, 3,4-dimethylbenzaldehyde] showed a Partition coefficient of 906 ± 20. Moreover, the “concentration which inhibits biomass growth” value in data set [2] worked out at 1.812e+06 µM.
For the compound `Cc1ccc(C(=O)O)cc1C` [3,4-Dimethylbenzoic acid, 3,4-dimethylbenzoic acid], the “concentration which inhibits biomass growth” value in data set [3] came to 16000 µM. Further, the Partition coefficient in data set [1] was 0.188 ± 0.005.
`Cc1ccc(CO)cc1C` [3,4-Dimethylbenzyl alcohol, 3,4-dimethylbenzyl alcohol] displayed a Partition coefficient in data set [1] (setting [5]) of 50 ± 3. For the same compound, in data set [2], the “concentration above which it has a toxic effect on the cells” value is more than 100000 µM and the “concentration which inhibits biomass growth” value worked out at 100000 µM.
On to `CC(=O)O` [acetic acid], for which the “concentration with inhibitory effect on cell growth” value in data set [4] was 5000 µg/mL.
With pseudocumene (trimethylbenzene), the Partition coefficient in data set [1] (setting [5]) turned out to be 24300 ± 1500. The “concentration above which it is toxic to the cells” value in data set [2] is 15-25%.
